Test results as given in patent publication US8148392B2, “2-indolyl imidazo [4,5-d] phenanthroline derivatives and their use in the treatment of cancer” (Lorus Therapeutics Inc., priority 2005, dated 2012).

Columns and labels:
KLF4 = KLF4 binding to Cyclin D1 promoter, ChIP, HT-29; format: cell-based, human; conditions: HT-29, ChIP
Description: Based on overlapping transcription factor binding sites on Cyclin D1 gene promoter region (FIG. 33A), increased binding of a negative regulator KLF4 may replace the binding of a positive regulator Sp1. In vivo KLF4 and Sp1 binding to Cyclin D1 promoter was shown by chromatin immuno-precipitation assay (ChIP) (FIG. 33B).
Chromatin immunoprecipitation (ChIP) was performed as follows. Cell lysates from HT-29 cells (5.5×10^5 cells in three 15 cm-culture plates in each experimental group) were prepared at the end of the indicated experiments, and ChIP assays were performed using anti-KLF4 and anti-Sp1 antibodies (Santa Cruz Biotechnology Inc.) and ChIP-ITTM kit (Active Motif, Carlsbad, Calif.) by following the manufacturer's instruction. The primers encompassing-231 to -92 region of Cyclin D1 promoter; 5′ primer (5′-CGGACTACAGGGGCAA-3′) [SEQ ID NO:1] and 3′ primer (5′-GCTCCAGGACTTTGCA-3′) [SEQ ID NO:2] were synthesized at Invitrogen.

[1] = In vitro chelation of zinc ions, Zinquin fluorescence; format: physicochemical; conditions: ZnCl2 2 μM in PBS, Zinquin 10 μM, 30 min
Description: To determine the chelation property of compound 3 with zinc ions in vitro, free available zinc ions were measured by spectrofluorometry using zinc-sensitive fluorescent dye Zinquin, following pre-incubation of ZnCl2 with different concentrations of compound 3 (FIG. 36). ZnCl2 2 μM was incubated with indicated concentrations of compound 3, in phosphate buffer saline (PBS), followed by addition of Zinquin, 10 μM final concentration for 30 min. Zinquin fluorescence upon zinc binding was measured in a Fluoroskan Ascent luminescence spectrofluorometer, at 364 nm excitation and 485 nm emission wavelengths.

[2] = test system: human leukemia CCRF-CEM cells; assay: Cell cycle analysis by flow cytometry, CCRF-CEM; format: cell-based; conditions: 0.25-1 μM, 24 hours
Description: To test the ability of compounds of Formula I to block cell cycle progression, compound 3 was incubated with human colon carcinoma HT-29 or human leukemia CCRF-CEM cells to determine alterations in populations of cells at different stages of the cell cycle using flow cytometric analysis. HT-29 cells were maintained as described in Example 13. CCRF-CEM cells used in this example and subsequent examples were maintained as suspension cells in a growth medium; RPMI-1640 medium (Sigma, St. Louis, Mo.), supplemented with 2 mM L-glutamine (Gibco, Grand Island, N.Y.), 10% fetal bovine serum (FBS) (Multicell, WISENT Inc. St-Bruno, QC), antibiotic-antimycotic (Multicell), at 37° C. in a 5% CO2-humidified incubator.
The assay was carried out as follows. For HT-29 cells, 1×10^6 cells in 10 mL volume of the growth medium were seeded in 100 mm dishes. For CCRF-CEM cells, 3×10^6 cells in 10 mL volume of the growth medium were seeded in 25 cm^2 flask. […] The fluorescence of stained cells was analyzed using FACScan flow cytometer and the Cell Quest program (BD Biosciences, San Jose, Calif.). Data were evaluated using Modfit software (Verity software House, Topsham, Me.). Values were determined by gate analysis of flow cytometric plots. […]

supercoiled plasmid DNA = assay: In vitro DNA cleavage assay; format: biochemical
How it was run: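 Supercoiled plasmid DNA (1 μg) in 10 mM sodium phosphate pH 6.7 with 100 μM ascorbate, 25 μM compound and 10 μM CuSO4 was kept 30 min at 37° C., stopped with EDTA and resolved on 1% agarose. Variants used 25 μM Cu, Zn or Fe salts, or compound:Cu ratios set with one component held at 10 μM.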

Cc1[nH]c2ccccc2c1-c1nc2c3cccnc3c3ncccc3c2[nH]1 [Compound 3]
KLF4 binding to Cyclin D1 promoter (KLF4): Increased KLF4
Zinquin fluorescence (free zinc ions) [1]: Dose-dependent decrease in Zinquin fluorescence
cell cycle progression [2]: induced a block in cell cycle progression at the G1 phase
cleavage of plasmid DNA (supercoiled plasmid DNA; 25 μM ZnCl2 or FeCl2 instead of copper): Neither zinc nor iron was able to replace copper
cleavage of plasmid DNA (supercoiled plasmid DNA; 25 μM compound, 10 μM CuSO4, 100 μM ascorbic acid, 37° C., 30 minutes): able to cleave plasmid DNA
cleavage of plasmid DNA (supercoiled plasmid DNA; absence of copper or reducing agent): Neither compound 3 nor OP was able to cleave DNA
cleavage of plasmid DNA (supercoiled plasmid DNA; ratio compound to copper 1:3): able to cleave at a ratio of 1:3
cleavage of plasmid DNA (supercoiled plasmid DNA; ratios compound to copper 1:1, 1:2, 1:2.5): unable to cleave
